# Molecular target: T1, KIT T670E (Homo sapiens, UniProt P10721, T670E)
# T1 construct: purchased Thermo Fisher Scientific (Life Technologies) SelectScreen
# Test: SelectScreen LanthaScreen
# Assay type: binding
# Settings: read-out: % displacement
# Summary of the method: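 NU5455 was profiled across the SelectScreen Broad panel of kinase activity and binding assays. Z'LYTE reactions such as CSF1R ran at apparent Km ATP, while the Adapta CAMK1 assay used ATP listed as 10. Values are given as percent.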
# T1 sequence (P10721 26-976 T670E): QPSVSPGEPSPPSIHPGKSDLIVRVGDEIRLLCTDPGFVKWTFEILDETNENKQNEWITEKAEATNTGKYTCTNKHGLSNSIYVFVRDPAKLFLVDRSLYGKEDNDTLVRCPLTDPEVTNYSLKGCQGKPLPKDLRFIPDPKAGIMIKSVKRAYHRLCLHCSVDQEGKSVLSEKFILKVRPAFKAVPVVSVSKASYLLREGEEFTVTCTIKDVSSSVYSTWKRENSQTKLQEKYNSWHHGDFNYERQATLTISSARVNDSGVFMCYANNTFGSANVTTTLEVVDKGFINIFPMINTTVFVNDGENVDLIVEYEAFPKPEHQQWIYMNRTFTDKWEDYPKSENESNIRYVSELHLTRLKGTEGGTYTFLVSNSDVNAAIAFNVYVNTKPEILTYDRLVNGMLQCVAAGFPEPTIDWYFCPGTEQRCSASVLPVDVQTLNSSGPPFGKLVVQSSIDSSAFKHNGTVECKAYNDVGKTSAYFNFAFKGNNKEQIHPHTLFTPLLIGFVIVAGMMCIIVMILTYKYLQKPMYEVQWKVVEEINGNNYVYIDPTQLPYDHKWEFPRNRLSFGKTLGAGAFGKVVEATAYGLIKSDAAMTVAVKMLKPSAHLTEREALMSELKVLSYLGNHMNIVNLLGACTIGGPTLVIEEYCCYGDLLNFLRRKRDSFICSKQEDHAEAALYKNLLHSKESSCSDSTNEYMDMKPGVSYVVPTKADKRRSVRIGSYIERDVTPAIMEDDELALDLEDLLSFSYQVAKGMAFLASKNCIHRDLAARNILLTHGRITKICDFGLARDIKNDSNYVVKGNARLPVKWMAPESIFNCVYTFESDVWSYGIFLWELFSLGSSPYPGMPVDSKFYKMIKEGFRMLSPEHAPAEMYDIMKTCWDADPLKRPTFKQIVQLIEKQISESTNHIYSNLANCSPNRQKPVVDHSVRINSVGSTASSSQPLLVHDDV
smiles,measurement,value
CN(C(=O)CN1CCOCC1)c1ccc2sc3c(-c4cccc5c(=O)cc(N6CC7CCC(C6)O7)oc45)cccc3c2c1 [NU5455],inhibition at 1 µM,-2.8%

# — article PMC6934184, “Selective DNA-PKcs inhibition extends the therapeutic index of localized radiotherapy and chemotherapy” (The Journal of Clinical Investigation, 2019)
